Assay results: US20250144020A1, “ULTRA-LONG FLOATING HYDROGEL RAFT FOR PROLONGED GASTRIC RETENTION AND APPLICATIONS REQUIRING BUOYANCY WITH CONTROLLED-RELEASE” (Nanyang Technological University, priority 2022, published 2025)
Where a name gives a salt, the structure may show the parent alone.

Assays:
[1] = In vitro release of MT in FaSGF with model fitting; type: physicochemical; conditions: 37° C., 150 rpm
Description: Receptacle cap type rafts were used for the release studies as the receptacle allows the loading of the FD, MP, and FM. The receptacle cap assembly also ensures that the system can be adopted for other drugs easily. This design was used to prevent the interaction of drugs with water in the hydrogel. 100 mg of free drug MT was weighed in triplicates and added to the receptacle of the raft before closing the lid to complete the assembly. Similarly, 20 mg of the MPs (prepared in Example 7) or one FM (prepared in Example 8) was weighed in replicates and added to the receptacle of the raft and closed with cap to obtain the raft containing MT in different forms. Drug forms that were not encased in the raft served as controls.
Required amounts of FD, MP, or FM were added to the receptacle of the raft, and the cap was used to close the structure to obtain FD encased in raft (FD-R), MP encased in raft (MP-R), and FM encased in raft (FM-R). This raft assembly was then tested under simulated gastric conditions using FaSGF in a shaking incubator (150 rpm) at 37° C. All experiments were carried out in triplicates. […] The collected samples were analyzed for the drugs using HPLC. For MT, acetonitrile:PBS (60:40) (PBS adjusted to pH 4.7) was used as the mobile phase at a flow rate of 0.8 ml/min and detected at 244 nm. […]

[2] = cited from earlier work
[3] = In vitro release of Ris in FaSGF with model fitting; type: physicochemical; conditions: not encased in raft
Description: This raft assembly was then tested under simulated gastric conditions using FaSGF in a shaking incubator (150 rpm) at 37° C. All experiments were carried out in triplicates. At specified time points, the release media were collected and replaced with an equal volume of fresh FaSGF. The collected samples were analyzed for the drugs using HPLC. […] Each drug form, without the raft, served as a control. To elucidate the mechanism of drug release, the release data were fitted to mathematical models.
Four different forms of the drug were used: 1. free drug; 2. commercial tablet; 3. drug encapsulated MPs; and 4. drug encapsulated FMes. […] Each drug form, without the raft, served as a control.
Receptacle cap type rafts were used for the release studies as the receptacle allows the loading of the FD, MP, and FM. […] Drug forms that were not encased in the raft served as controls.

| time of MT release (sustained over / dissolved completely in), in words [1] | Compound | water solubility (in words) [2] | time to complete dissolution, uncased [3] [h] |
| --- | --- | --- | --- |
| one hour | COCCc1ccc(OCC(O)CNC(C)C)cc1 (stereo not shown) [MT, metoprolol tartrate] | water-soluble |  |
|  | Cc1nc2n(c(=O)c1CCN1CCC(c3noc4cc(F)ccc34)CC1)CCCC2 [Ris, Risperidone] | insoluble in water | 1 |
